Laboratory results from patent US12653802B2, “Method for treating lung cancer” (priority 2020, dated 2026).

Legend:
[1] = test system: H1975 cells; assay: Cell survival assay in EGFR-TKIs resistant NSCLC cells, IC50 (FIG. 1B); type: cell-based; details: treated for 3 days, versus curcumin
Method: (§1) Experimentally, another 7 EGFR-TKIs resistant NSCLC cells were treated with Compound 21a, Compound 35a, Compound 35d, Compound 36 or Compound 37, and then the cell survival assay was performed to measure the IC50 values of the diarylheptanoid compounds of the present disclosure in the EGFR-TKIs resistant NSCLC cells, so as to determine the growth inhibitory effect of the diarylheptanoid compounds of the present disclosure on the EGFR-TKIs resistant NSCLC cells.
(§2) Please refer to FIG. 1B, FIG. 1C and FIG. 1D.

[2] = test system: GR8 cells; assay: Cell survival assay in gefitinib-resistant NSCLC cells, IC50 (FIG. 1C); type: cell-based; details: treated for 3 days, versus curcumin
Method: as §1, §2

[3] = test system: GR5 cells; assay: as above; type: cell-based; details: treated for 3 days, versus curcumin
Method: as §1, §2

[4] = test system: GR6 cells; assay: as above; type: cell-based; details: treated for 3 days, versus curcumin
Method: as §1, §2

[5] = test system: GR9 cells; assay: as above; type: cell-based; details: treated for 3 days, versus curcumin
Method: as §1, §2

[6] = test system: GR10 cells; assay: as above; type: cell-based; details: treated for 3 days, versus curcumin
Method: as §1, §2

[7] = test system: GR2 cells; assay: as above; type: cell-based; details: treated for 3 days, versus curcumin
Method: as §1, §2

[8] = test system: H1650 cells; assay: Growth inhibition of EGFR gene mutant NSCLC cells, cell survival stained with crystal violet, IC50 (FIG. 1A); type: cell-based; details: treated for 3 days, versus parent compound curcumin
Method: The EGFR gene mutant NSCLC cells were treated with the diarylheptanoid compounds of the present disclosure, and then the cell survival was stained with crystal violet to measure the IC50 values of the diarylheptanoid compounds of the present disclosure in the EGFR gene mutant NSCLC cells, so as to determine the growth inhibitory effect of the diarylheptanoid compounds of the present disclosure on the EGFR gene mutant NSCLC cells.
EGFR gene mutations in lung cancer are mostly found in exons 18-21, which are the intracellular tyrosine kinase coding region. The most common mutations include E746-A750del in exon 19 and L858R point mutation in exon 21, which account for about 85%-90% of EGFR gene mutations. Tumor cells with these two mutations are sensitive to the EGFR-TKIs, known as activating mutations. Secondary mutations may occur in some tumor cells, and the most common secondary mutation is the T790M mutation in exon 20, which is a drug resistance mutation. […] The H1650 cells have the E746-A750del mutation in exon 19 of the EGFR gene, wherein the CCM represents curcumin and the BDMC represents bisdemethoxycurcumin.

[9] = Body weight changes in the tumor mice treated with Compound 35d alone (FIG. 2D); type: in vivo; details: 100 mg/kg daily, treated for more than 1 month
Method: In order to verify the anticancer effect of the diarylheptanoid compound of the present disclosure in vivo, the GR6 tumor mouse model, the GR8 tumor mouse model and the HCC827 tumor mouse model of xenotransplantation were first established, and the GR6 tumor mice, the GR8 tumor mice, and the HCC827 tumor mice were treated with 100 mg/kg of Compound 35d daily for 35 days, and the tumor size and body weight of the GR6 tumor mice, the GR8 tumor mice, and the HCC827 tumor mice were recorded.

[10] = Body weight changes in GR6 tumor mice, single and combined treatment (FIG. 3B); type: in vivo; details: Compound 35d 100 mg/kg per day alone or with osimertinib 1 mg/kg per day
Method: (§3) EGFR-TKIs are currently the standard treatment for NSCLC patients with the EGFR gene mutation. To further test whether the combined use of the diarylheptanoid compound of the present disclosure and known drug can enhance the therapeutic effect of NSCLC, the GR6 tumor mice were divided into 4 groups. One group received 100 mg/kg Compound 35d treatment per day (represented as 35d), another group received 1 mg/kg osimertinib treatment per day (represented as Osi), still another group received the combined treatment of 100 mg/kg Compound 35d and 1 mg/kg osimertinib per day (represented as 35d+Osi), and the other group was the control group without drug treatment.

[11] = test system: GR6 tumor; assay: Tumor re-progression in GR6 tumor mice, single and combined treatment with osimertinib (FIG. 3A); type: in vivo; details: Compound 35d 100 mg/kg per day, osimertinib 1 mg/kg per day, alone or combined
Method: as §3

| Structure (SMILES) | inhibitory activity on the growth of the H1975 cells (IC50) compared with curcumin [1] | inhibitory activity on the growth of the GR8 cells (IC50) compared with curcumin [2] | inhibitory activity on the growth of the GR5 cells (IC50) compared with curcumin [3] | inhibitory activity on the growth of the GR6 cells (IC50) compared with curcumin [4] | inhibitory activity on the growth of the GR9 cells (IC50) compared with curcumin [5] | inhibitory activity on the growth of the GR10 cells (IC50) compared with curcumin [6] | inhibitory activity on the growth of the GR2 cells (IC50) compared with curcumin [7] | inhibitory activity on the growth of the H1650 cells (IC50) compared with curcumin [8] | body weight of the tumor mice [9] | body weight of the GR6 tumor mice [10] | tumor size / tumor re-progression in the GR6 tumor mice [11] |
| --- | --- | --- | --- | --- | --- | --- | --- | --- | --- | --- | --- |
| COc1cc(/C=C/C(=O)/C=C(O)/C=C/c2ccc(OC(=O)C(C)(CO)CO)c(OC)c2)ccc1OC(=O)C(C)(CO)CO [Compound 21a, ((1E,3Z,6E)-3-hydroxy-5-oxohepta-1,3,6-triene-1,7-diyl)bis(2-methoxy-4,1-phenylene)bis(3-hydroxy-2-hydroxymethyl)-2-methylpropanoate] | significantly better inhibitory activity than curcumin | significantly better inhibitory activity than curcumin | significantly better inhibitory activity than curcumin | significantly better inhibitory activity than curcumin | significantly better inhibitory activity than curcumin | significantly better inhibitory activity than curcumin | significantly better inhibitory activity than curcumin | significantly better inhibitory activity than the parent compound—curcumin |  |  |  |
| COc1cc(/C=C/C(=O)C(C)(C)C(=O)/C=C/c2ccc(OC(=O)C(C)(CO)CO)c(OC)c2)ccc1OC(=O)C(C)(CO)CO [Compound 35a, ((1E,6E)-4,4-dimethyl-3,5-dioxohepta-1,6-diene-1,7-diyl)bis(2-methoxy-4,1-phenylene)bis(3-hydroxy-2-hydroxymethyl)-2-methylpropanoate] | significantly better inhibitory activity than curcumin | significantly better inhibitory activity than curcumin | significantly better inhibitory activity than curcumin | significantly better inhibitory activity than curcumin | significantly better inhibitory activity than curcumin | significantly better inhibitory activity than curcumin | significantly better inhibitory activity than curcumin | significantly better inhibitory activity than the parent compound—curcumin |  |  |  |
| C#CCC(CC#C)(C(=O)/C=C/c1ccc(OC(=O)C(C)(CO)CO)c(OC)c1)C(=O)/C=C/c1ccc(OC(=O)C(C)(CO)CO)c(OC)c1 [Compound 35d, ((1E,6E)-3,5-dioxo-4,4-di(prop-2-yn-1-yl)hepta-1,6-diene-1,7-diyl)bis(2-methoxy-4,1-phenylene)bis(3-hydroxy-2-(hydroxymethyl)-2-methylpropanoate)] |  |  |  |  |  |  |  |  | did not decrease significantly | neither the single treatment of Compound 35d nor the combined treatment of Compound 35d and osimertinib can significantly reduce the body weight |  |
| C=CC(=O)Nc1cc(Nc2nccc(-c3cn(C)c4ccccc34)n2)c(OC)cc1N(C)CCN(C)C [osimertinib] |  |  |  |  |  |  |  |  |  |  | initially reduced by osimertinib treatment, the treated tumors subsequently re-growth |
